From patent publication US8415351B2 (priority 2007, dated 2013) come the findings set out here.

Experiment [1] concerns genotype 1b-Con1 subgenomic replicon cell line. The experiment can be described thus: microbe, parasite or virus in culture. Format: cell-based, HCV. As to conditions: Hepatitis C virus, read-out: EC50 1b.
Experiment [2] deals with T1, HCV polymerase 1B (Δ21 NS5B, BK) (Hepatitis C virus genotype 1b, UniProt P26663).
T1 construct: 20 to 50 nM Δ21 NS5B
The experiment can be described thus: biochemical. The procedure:
(§1) HCV Polymerase Inhibition Assay
(§2) Either two-fold serial dilutions (fractional inhibition assay) or a narrower range of dilutions spanning the IC50 of the inhibitor (tight binding assay) of the inhibitors were incubated with 20 mM Tris-Cl pH 7.4, 2 mM MnCl2, 1 mM dithiothreitol, 1 mM ethylene diamine tetraacetic acid (EDTA), 60 to 125 μM GTP and 20 to 50 nM Δ21 NS5B (HCV Strain 1B (BK, Genbank accession number M58335, or H77, Genbank accession number AF011751)) for 15 min at room temperature. The reaction was initiated by the addition of 20 μM CTP, 20 μM ATP, 1 μM ^3H-UTP (10 mCi/umol), 5 nM template RNA and 0.1 U/μl RNase inhibitor (RNasin, Promega), and allowed to proceed for 2 to 4 h at room temperature. Reaction volume was 50 μl. The reaction was terminated by the addition of 1 volume of 4 mM spermine in 10 mM Tris-Cl pH 8.0, 1 mM EDTA. After incubation for at least 15 min at room temperature, the precipitated RNA was captured by filtering through a GF/B filter (Millipore) in a 96 well format. The filter plate was washed three times with 200 μl each of 2 mM spermine, 10 mM Tris-Cl pH 8.0, 1 mM EDTA, and 2 times with ethanol. After air-drying, 30 μl of Microscint 20 scintillation cocktail (Packard) was added to each well, and the retained cpm were determined by scintillation counting. […] Retained cpm were plotted vs. inhibitor concentration and fit to equation 1 using non-linear regression (ref. 1) to obtain the IC50 values: Retained cpm=A[sqrt{(IC50+It−Et)^2+4*IC50*Et}−(IC50+It−Et)]
Ref. Morrison, J. F. and S. R. Stone. 1985. Approaches to the study and analysis of the inhibition of enzymes by slow- and tight-binding inhibitors. Comments Mol. Cell. Biophys. 2: 347-368.
The sequence of the template RNA used was: 5′-[…] […] […] […] […] […] […] […] […] […] […] […] […] […] […] […] […]-3′ (SEQ ID NO: 1)

For experiment [3], the target named is T2, HCV polymerase 1A (Δ21 NS5B, H77) (Hepatitis C virus genotype 1a, UniProt P27958).
T2 construct: 20 to 50 nM Δ21 NS5B
T2 sequence (P27958 2421-2990, stated change not applied): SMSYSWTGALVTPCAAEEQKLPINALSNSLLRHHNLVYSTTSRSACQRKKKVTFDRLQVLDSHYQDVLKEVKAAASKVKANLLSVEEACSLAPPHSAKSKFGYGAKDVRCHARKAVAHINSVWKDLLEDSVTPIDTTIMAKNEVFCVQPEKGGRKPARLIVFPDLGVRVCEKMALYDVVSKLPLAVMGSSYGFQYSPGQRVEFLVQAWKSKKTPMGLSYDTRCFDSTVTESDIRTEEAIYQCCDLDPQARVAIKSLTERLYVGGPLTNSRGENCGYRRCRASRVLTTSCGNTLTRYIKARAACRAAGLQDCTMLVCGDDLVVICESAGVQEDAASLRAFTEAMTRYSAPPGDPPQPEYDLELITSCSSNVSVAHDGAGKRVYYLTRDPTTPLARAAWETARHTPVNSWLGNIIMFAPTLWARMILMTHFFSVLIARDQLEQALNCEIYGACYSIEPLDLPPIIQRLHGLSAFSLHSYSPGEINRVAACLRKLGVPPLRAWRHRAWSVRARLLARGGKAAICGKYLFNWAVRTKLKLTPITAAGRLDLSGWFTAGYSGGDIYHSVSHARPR
The experiment can be described thus: biochemical. Conditions: IC50 1a. The procedure:
as §1
as §2, with “The” for “Either two-fold serial dilutions (fractional inhibition assay) or a narrower range of dilutions spanning the IC50 of the inhibitor (tight binding assay) of the inhibitors were incubated with 20 mM Tris-Cl pH 7.4, 2 mM MnCl2, 1 mM dithiothreitol, 1 mM ethylene diamine tetraacetic acid (EDTA), 60 to 125 μM GTP and 20 to 50 nM Δ21 NS5B (HCV Strain 1B (BK, Genbank accession number M58335, or H77, Genbank accession number AF011751)) for 15 min at room temperature. The”
Ref. Morrison, J. F. and S. R. Stone. […] Approaches to the study and analysis of the inhibition of enzymes by slow- and tight-binding inhibitors. Comments Mol. Cell. Biophys.
The sequence of the template RNA used was: 5′-[…]

Where a name gives a salt, the structure may show the parent alone. Where only a bound is given, the exact number is not on record here.

T1 sequence (P26663 2420-2989, stated change not applied): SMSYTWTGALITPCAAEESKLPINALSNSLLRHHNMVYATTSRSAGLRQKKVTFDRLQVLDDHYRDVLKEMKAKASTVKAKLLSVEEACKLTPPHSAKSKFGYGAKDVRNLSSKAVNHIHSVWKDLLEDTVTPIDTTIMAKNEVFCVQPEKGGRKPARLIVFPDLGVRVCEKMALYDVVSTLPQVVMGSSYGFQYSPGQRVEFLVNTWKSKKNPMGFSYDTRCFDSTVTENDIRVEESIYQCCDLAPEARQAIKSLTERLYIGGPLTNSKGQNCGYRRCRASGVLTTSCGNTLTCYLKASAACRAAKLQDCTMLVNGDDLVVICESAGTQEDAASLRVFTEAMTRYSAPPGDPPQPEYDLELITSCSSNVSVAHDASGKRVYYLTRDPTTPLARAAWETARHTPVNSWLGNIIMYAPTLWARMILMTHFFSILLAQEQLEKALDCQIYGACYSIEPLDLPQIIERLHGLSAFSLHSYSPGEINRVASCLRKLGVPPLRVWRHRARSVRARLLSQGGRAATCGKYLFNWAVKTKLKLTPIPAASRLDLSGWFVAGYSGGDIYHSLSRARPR

Take `CC(C)(C)c1cc(N2CCC(=O)NC2=O)cc(C(=O)Nc2ccc(NS(=O)(=O)CCN3CCOCC3)cc2)c1O` [IA-L3-1.14, 3-tert-butyl-5-(2,4-dioxotetrahydropyrimidin-1(2H)-yl)-2-hydroxy-N-(4-(2-morpholinoethylsulfonamido)phenyl)benzamide]: in experiment [1], the EC50 was in the range of 100 to 1000 nM. Further, the IC50 was less than 10 nM in experiment [2] and 10 to 100 nM in experiment [3].
On to `COCCS(=O)(=O)Nc1ccc(NC(=O)c2cc(N3CCC(=O)NC3=O)cc(C(C)(C)C)c2OC)cc1` [IA-L3-1.54, 3-tert-butyl-5-(2,4-dioxotetrahydropyrimidin-1(2H)-yl)-2-methoxy-N-(4-(2-methoxyethylsulfonamido)phenyl)benzamide], for which the EC50 in experiment [1] lay in the range of 10 to 100 nM. In addition, the IC50 was 100 to 1000 nM in experiment [2] and 10 to 100 nM in experiment [3].
As for `COc1c(C(=O)Nc2ccc(NS(=O)(=O)CCN(CCO)CCO)cc2)cc(N2CCC(=O)NC2=O)cc1C(C)(C)C` [IA-L3-1.56, N-(4-(2-(bis(2-hydroxyethyl)amino)ethylsulfonamido)phenyl)-3-tert-butyl-5-(2,4-dioxo-tetrahydropyrimidin-1(2H)-yl)-2-methoxybenzamide], the EC50 in experiment [1] was in the range of 100 to 1000 nM. Further, the IC50 in experiment [2] and in experiment [3] was 100 to 1000 nM throughout.
On to `COc1c(C(=O)Nc2ccc(NS(=O)(=O)CCN3CCOCC3)cc2)cc(N2CCC(=O)NC2=O)cc1C(C)(C)C` [IA-L3-1.58, 3-tert-butyl-5-(2,4-dioxotetrahydropyrimidin-1(2H)-yl)-2-methoxy-N-(4-(2-morpholinoethylsulfonamido)phenyl)benzamide], for which the EC50 in experiment [1] was in the range of 100 to 1000 nM. Besides, the IC50 in experiment [2] and in experiment [3] was 100 to 1000 nM throughout.
As for `CCOC(=O)C1CCCN(Cc2cc(N3CCC(=O)NC3=O)cc(C(C)(C)C)c2O)C1` (centres unmarked) [IA-L5-1-1.3, 1-[3-tert-butyl-5-(2,4-dioxo-tetrahydro-pyrimidin-1-yl)-2-hydroxy-benzyl]-piperidine-3-carboxylic acid ethyl ester], the IC50 in experiment [2] and in experiment [3] was greater than 1000 nM each time.
Take `CC1CCCN(Cc2cc(N3CCC(=O)NC3=O)cc(C(C)(C)C)c2O)C1` (centres unmarked) [IA-L5-1-1.4, 1-[3-tert-butyl-4-hydroxy-5-(3-methyl-piperidin-1-ylmethyl)-phenyl]-dihydro-pyrimidine-2,4-dione; compound with trifluoroacetic acid]: the IC50 in experiment [2] and in experiment [3] was greater than 1000 nM in each case.
With `COC(=O)C1CCN(Cc2cc(N3CCC(=O)NC3=O)cc(C(C)(C)C)c2O)CC1` [IA-L5-1-1.5, 1-[3-tert-butyl-5-(2,4-dioxo-tetrahydro-pyrimidin-1-yl)-2-hydroxy-benzyl]-piperidine-4-carboxylic acid methyl ester], the IC50 in experiment [2] and in experiment [3] was greater than 1000 nM in each case.
Take `CC(C)(C)c1cc(N2CCC(=O)NC2=O)cc(CN2CCC[C@@H](O)C2)c1O` [IA-L5-1-1.6, 1-[3-tert-butyl-4-hydroxy-5-((R)-3-hydroxy-piperidin-1-ylmethyl)-phenyl]-dihydro-pyrimidine-2,4-dione; compound with trifluoroacetic acid]: the IC50 in experiment [2] and in experiment [3] was greater than 1000 nM each time.
With `CCN(CC)C(=O)C1CCCN(Cc2cc(N3CCC(=O)NC3=O)cc(C(C)(C)C)c2O)C1` (centres unmarked) [IA-L5-1-1.7, 1-[3-tert-butyl-5-(2,4-dioxo-tetrahydro-pyrimidin-1-yl)-2-hydroxy-benzyl]-piperidine-3-carboxylic acid diethylamide, trifluoroacetic acid salt], the IC50 in experiment [2] and in experiment [3] was greater than 1000 nM each time.
Regarding `CC(C)(C)c1cc(N2CCC(=O)NC2=O)cc(CN2CCCC(C(N)=O)C2)c1O` (centres unmarked) [IA-L5-1-1.8, 1-[3-tert-butyl-5-(2,4-dioxo-tetrahydro-pyrimidin-1-yl)-2-hydroxy-benzyl]-piperidine-3-carboxylic acid amide, trifluoroacetic acid salt], the IC50 in experiment [2] and in experiment [3] was greater than 1000 nM throughout.
Take `CC(C)(C)OC(=O)N1CCN(Cc2cc(N3CCC(=O)NC3=O)cc(C(C)(C)C)c2O)CC1` [IA-L5-1-1.10, 4-[3-tert-butyl-5-(2,4-dioxo-tetrahydro-pyrimidin-1-yl)-2-hydroxy-benzyl]-piperazine-1-carboxylic acid tert-butyl ester]: the IC50 in experiment [2] and in experiment [3] was greater than 1000 nM throughout.
Regarding `CC(C)(C)c1cc(N2CCC(=O)NC2=O)cc(CN2CCC(NS(C)(=O)=O)C2)c1O` (centres unmarked) [IA-L5-1-1.11, N-{1-[3-tert-butyl-5-(2,4-dioxo-tetrahydro-pyrimidin-1-yl)-2-hydroxy-benzyl]-pyrrolidin-3-yl}-methanesulfonamide], the IC50 in experiment [2] and in experiment [3] was greater than 1000 nM throughout.
On to `CC(C)(C)OC(=O)NC1CCN(Cc2cc(N3CCC(=O)NC3=O)cc(C(C)(C)C)c2O)C1` (centres unmarked) [IA-L5-1-1.12, {1-[3-tert-butyl-5-(2,4-dioxo-tetrahydro-pyrimidin-1-yl)-2-hydroxy-benzyl]-pyrrolidin-3-yl}-carbamic acid tert-butyl ester], for which the IC50 in experiment [2] and in experiment [3] was greater than 1000 nM throughout.
Regarding `CC1CN(Cc2cc(N3CCC(=O)NC3=O)cc(C(C)(C)C)c2O)CC(C)O1` (centres unmarked) [IA-L5-1-1.13, 1-(3-tert-butyl-5-((2,6-dimethylmorpholino)methyl)-4-hydroxyphenyl)dihydro pyrimidine-2,4(1H,3H)-dione 2,2,2-trifluoroacetate], the IC50 in experiment [2] and in experiment [3] was greater than 1000 nM throughout.
As for `CC(C)(C)c1cc(N2CCC(=O)NC2=O)cc(CN2CCOCC2)c1O` [IA-L5-1-1.14, 1-(3-tert-butyl-4-hydroxy-5-(morpholinomethyl)phenyl)dihydropyrimidine-2,4(1H,3H)-dione 2,2,2-trifluoroacetate], the IC50 in experiment [2] and in experiment [3] was greater than 1000 nM throughout.
With `COc1c(Cc2cn(C)c3ccccc23)cc(N2CCC(=O)NC2=O)cc1C(C)(C)C` [IA-L5-1-2.1, 1-(3-tert-butyl-4-methoxy-5-((1-methyl-1H-indol-3-yl)methyl)phenyl)dihydropyrimidine-2,4(1H,3H)-dione], the IC50 in experiment [2] and in experiment [3] was greater than 1000 nM in each case.
For `CC(C)(C)c1cc(N2CCC(=O)NC2=O)cc(CN2CCCc3cc(NS(C)(=O)=O)ccc32)c1O` [IA-L5-1-2.2, N-(1-(3-tert-butyl-5-(2,4-dioxotetrahydropyrimidin-1(2H)-yl)-2-hydroxybenzyl)-1,2,3,4-tetrahydroquinolin-6-yl)methanesulfonamide], the IC50 in experiment [2] and in experiment [3] was greater than 1000 nM in each case.
For the compound `CCN(Cc1cc(N2CCC(=O)NC2=O)cc(C(C)(C)C)c1O)C1CCCCC1` [IA-L9-1.1, 1-(3-tert-butyl-5-((cyclohexyl(ethyl)amino)methyl)-4-hydroxyphenyl)dihydropyrimidine-2,4(1H,3H)-dione 2,2,2-trifluoroacetate], the IC50 in experiment [2] and in experiment [3] was greater than 1000 nM in each case.
On to `CN(Cc1cc(N2CCC(=O)NC2=O)cc(C(C)(C)C)c1O)C1CCCCC1` [IA-L9-1.2, 1-(3-tert-butyl-5-((cyclohexyl(methyl)amino)methyl)-4-hydroxyphenyl)dihydro pyrimidine-2,4(1H,3H)-dione 2,2,2-trifluoroacetate], for which the IC50 in experiment [2] and in experiment [3] was greater than 1000 nM each time.
As for `CC(C)(C)c1cc(N2CCC(=O)NC2=O)cc(CNc2ccc(NS(C)(=O)=O)cc2)c1O` [IA-L9-1.3, N-(4-(3-tert-butyl-5-(2,4-dioxotetrahydropyrimidin-1(2H)-yl)-2-hydroxybenzylamino)phenyl)methanesulfonamide], the IC50 in experiment [2] and in experiment [3] was greater than 1000 nM throughout.
